Measured values: article PMC7869707 (European Journal of Medicinal Chemistry, 2021)
pIC50, pKd: −log10 of the molar value.

Columns and labels:
293T-ACE2 cells = test: Cytotoxicity assay; assay type: cell-based; conditions: MTT
SARS-CoV-2 PsV = test: microbe, parasite or virus in culture; assay type: cell-based; conditions: for pIC50: Severe acute respiratory syndrome coronavirus 2, 293T/ACE2, 48 h, read-out: IC50 (50% inhibitory concentration) against infection of 293T-ACE2 cells by SARS-CoV-2 PsV
VSV-G PsV = assay type: cell-based
SARS-CoV-2 S-trimer = SARS-CoV-2 S-trimer (Severe acute respiratory syndrome coronavirus 2, UniProt P0DTC2); test: biochemical; assay type: binding
SARS-CoV-2 S2 subunit = SARS-CoV-2 S2 subunit (Severe acute respiratory syndrome coronavirus 2, UniProt P0DTC2); assay type: binding
Vero-E6 cells = test: Cytotoxicity assay; assay type: cell-based; conditions: MTT
[1] = biological target: SARS-CoV-2 S binding to the ACE2 receptor (Severe acute respiratory syndrome coronavirus 2, UniProt P0DTC2)
[2] = test system: SARS-CoV-2 S protein mediated membrane fusion of Vero-E6 cells; assay type: cell-based

Compound: C[C@@H]1O[C@@H](O[C@H]2[C@H](O[C@H]3CC[C@]4(C)[C@H]5CC=C6[C@@H]7CC(C)(C)CC[C@]7(C(=O)OCc7ccccc7)CC[C@@]6(C)[C@]5(C)CC[C@H]4C3(C)C)O[C@H](CO)[C@@H](O[C@@H]3O[C@@H](C)[C@H](O)[C@@H](O)[C@H]3O)[C@@H]2O)[C@H](O)[C@H](O)[C@H]1O [Compound 2, 3β-O-[2,4-di-O-(α-L-rhamnopyranosyl)-β-D-glucopyranosyl]-olean-12-en-28-oic acid benzyl ester]
- Cytotoxicity against 293T-ACE2 cells (293T-ACE2 cells): moderate cytotoxicity

Compound: COc1ccccc1NC(=O)[C@]12CCC(C)(C)C[C@H]1C1=CC[C@@H]3[C@@]4(C)CC[C@H](O[C@@H]5O[C@H](CO)[C@@H](O[C@@H]6O[C@@H](C)[C@H](O)[C@@H](O)[C@H]6O)[C@H](O)[C@H]5O[C@@H]5O[C@@H](C)[C@H](O)[C@@H](O)[C@H]5O)C(C)(C)[C@@H]4CC[C@@]3(C)[C@]1(C)CC2 [Compound 12b, N-{3β-O-[2,4-di-O-(a-L-rhamnopyranosyl)-β-D-glucopyranosyl]-olean-12-en-28-oyl}-2-methoxyaniline]
- pIC50 (SARS-CoV-2 PsV): > 5.22
- Inhibition of VSV-G pseudoviral transduction (VSV-G PsV): no effect

Compound: C[C@@H]1O[C@@H](O[C@H]2[C@H](O[C@H]3CC[C@]4(C)[C@H]5CC=C6[C@@H]7CC(C)(C)CC[C@]7(C(=O)NCc7ccccc7)CC[C@@]6(C)[C@]5(C)CC[C@H]4C3(C)C)O[C@H](CO)[C@@H](O[C@@H]3O[C@@H](C)[C@H](O)[C@@H](O)[C@H]3O)[C@@H]2O)[C@H](O)[C@H](O)[C@H]1O [Compound 12f, N-{3β-O-[2,4-di-O-(a-L-rhamnopyranosyl)-β-D-glucopyranosyl]-olean-12-en-28-oyl}-benzylamine]
- Cytotoxicity against 293T-ACE2 cells (293T-ACE2 cells): negligible cytotoxicity
- Inhibition of VSV-G pseudoviral transduction (VSV-G PsV): no inhibition
- pKd (SARS-CoV-2 S-trimer): 6.03
- Fold higher affinity with S2 subunit in relation to S1 subunit (SARS-CoV-2 S2 subunit): more than 1000 fold
- Cytotoxicity against Vero-E6 cells (Vero-E6 cells): negligible cytotoxicity
- Effect on SARS-CoV-2 S binding to the ACE2 receptor [1]: no effect
- Inhibition of membrane fusion mediated by SARS-CoV-2 S protein [2]: remarkably inhibit

Compound: C[C@@H]1O[C@@H](O[C@H]2[C@H](O[C@H]3CC[C@]4(C)[C@H]5CC=C6[C@@H]7CC(C)(C)CC[C@]7(C(=O)NCc7ccccn7)CC[C@@]6(C)[C@]5(C)CC[C@H]4C3(C)C)O[C@H](CO)[C@@H](O[C@@H]3O[C@@H](C)[C@H](O)[C@@H](O)[C@H]3O)[C@@H]2O)[C@H](O)[C@H](O)[C@H]1O [Compound 12g, N-{3β-O-[2,4-di-O-(a-L-rhamnopyranosyl)-β-D-glucopyranosyl]-olean-12-en-28-oyl}-2-pyridinemethanamine]
- Potency against SARS-CoV-2 PsV (SARS-CoV-2 PsV): loss of potency

Compound: C[C@@H]1O[C@@H](O[C@H]2[C@H](O[C@H]3CC[C@]4(C)[C@H]5CC=C6[C@@H]7CC(C)(C)CC[C@]7(C(=O)NCc7ccco7)CC[C@@]6(C)[C@]5(C)CC[C@H]4C3(C)C)O[C@H](CO)[C@@H](O[C@@H]3O[C@@H](C)[C@H](O)[C@@H](O)[C@H]3O)[C@@H]2O)[C@H](O)[C@H](O)[C@H]1O [Compound 12h, N-{3β-O-[2,4-di-O-(a-L-rhamnopyranosyl)-β-D-glucopyranosyl]-olean-12-en-28-oyl}-2-furyl-methylamin]
- Potency against SARS-CoV-2 PsV (SARS-CoV-2 PsV): lacked potency

Compound: C[C@@H]1O[C@@H](O[C@H]2[C@H](O[C@H]3CC[C@]4(C)[C@H]5CC=C6[C@@H]7CC(C)(C)CC[C@]7(C(=O)NCc7cccs7)CC[C@@]6(C)[C@]5(C)CC[C@H]4C3(C)C)O[C@H](CO)[C@@H](O[C@@H]3O[C@@H](C)[C@H](O)[C@@H](O)[C@H]3O)[C@@H]2O)[C@H](O)[C@H](O)[C@H]1O [Compound 12i, N-{3β-O-[2,4-di-O-(a-L-rhamnopyranosyl)-β-D-glucopyranosyl]-olean-12-en-28-oyl}-2-thiophenemethylamine]
- pIC50 (SARS-CoV-2 PsV): > 5.22
- Inhibition of VSV-G pseudoviral transduction (VSV-G PsV): no effect

Compound: C[C@@H]1O[C@@H](O[C@H]2[C@H](O[C@H]3CC[C@]4(C)[C@H]5CC=C6[C@@H]7CC(C)(C)CC[C@]7(C(=O)NCc7ccccc7F)CC[C@@]6(C)[C@]5(C)CC[C@H]4C3(C)C)O[C@H](CO)[C@@H](O[C@@H]3O[C@@H](C)[C@H](O)[C@@H](O)[C@H]3O)[C@@H]2O)[C@H](O)[C@H](O)[C@H]1O [Compound 12k, N-{3β-O-[2,4-di-O-(a-L-rhamnopyranosyl)-β-D-glucopyranosyl]-olean-12-en-28-oyl}-2-fluorobenzylamine]
- pIC50 (SARS-CoV-2 PsV): > 5.22
- Inhibition of VSV-G pseudoviral transduction (VSV-G PsV): no effect
